Assay results as given in patent US20030054990A1, “Methods of using neural thread proteins to treat tumors and other conditions requiring the removal or destruction of cells” (Nymox Pharmaceutical Corporation, priority 2001, published 2003).
Where “and” joins values, the source holds several entries; their conditions need not be identical. Equal entries are not always repeated.

Columns and labels:
Assay type in all cases: cell-based
[1] = MTT assay, cytotoxicity in glioma cells; settings: glioma cells (ATCC), per cent of negative control, Tamoxifen 100 μM, AD7C-NTP 100-1000 ng/ml, read-out: Percent Of Viable Cells
Experimental: (§1) Cryopreserved glioma and neuroblastoma cells were acquired from the American Type Culture Collection (ATCC), Virginia. Cells were thawed and diluted in suspension media and centrifuged at 700 rpm for 7 minutes at 4° C. Cell pellets were then resuspended in CACO-2 media and cultured in standard 75 or 175 cm^2 flasks at 37° C., 5% CO2 until approximately confluent. The cells were then trypsinized and resuspended in CACO-2 media to achieve a final cell density of 1.5×10^5 cells/ml. 50 μl aliquots per sample were then added per well to 96 well plates.
(§2) For Experiment I, 50 μl of either PBS (phosphate buffered solution) (negative control), 100 μM tamoxifen in phosphate buffered saline PBS (positive control), or test article were added to each sample culture.
(§3) For Experiment II, 1 mM tamoxifen in DMSO (dimethylsulfoxide) was diluted to 100 μM concentration in CACO-2 media, and 100 μl per well was added to positive control wells. A vehicle control consisting of 1% DMSO in CACO-2 media was also added to this experiment. Other negative controls consisted of human and bovine serum albumin and other nontoxic polypeptides.
(§4) An MTT assay is a sensitive assay for the measurement of cell proliferation based upon the reduction of the tetrazolium salt 3,[4,5-dimethylthiazol-2-yl]-2,5-diphenyltetrazolium bromide (MTT).
(§5) Following incubations with control or test substances, media was aspirated and 100 μl MTT was added to each well. Plates were then incubated for 3 hours at 37° C., 5% CO2. MTT was then replaced with acidified isopropanol (0.4 N HCI) and the plates were stored overnight at 4° C., covered. Plates were then agitated gently for 1 minute on a rotary shaker and the difference between emission absorbance of 570 nm and background absorbance of 650 nm was measured spectrophotometrically on an automated plate reader.
(§6) Neuroblastoma and glioma cells were incubated for 24 hours following treatment with test materials or control solutions. MTT was added to all cultures at this time. Results are expressed as means absorbance differences and represented as per cent of negative control and are shown in Table 1 (cytotoxicity in glioma cells) and Table 2 (cytotoxicity in neuroblastoma cells).
(§7) Glioma cells and neuroblastma cells were used for this experiment. MTT was added to the plates following a 24 hour incubation with control or test solutions. Other plates were replenished with fresh media, control, or test solution at 24 hours and then read 3 days later. Results are expressed as mean absorbance differences and as per cent of negative control and are shown in Table 3 (glioma cells) and Table 4 (neuroblastoma cells).

glioma cells = assay: MTT assay, cytotoxicity in glioma cells; settings: Tamoxifen 100 μM, AD7C-NTP 100-1000 ng/ml; for ABS 570-650 Sample: single replicate
Experimental: as §1, §2, §3, §4, §5, §6, §7

[2] = MTT assay, cytotoxicity in neuroblastoma cells; settings: neuroblastoma cells (ATCC), per cent of negative control, Tamoxifen 100 μM, AD7C-NTP 100-1000 ng/ml, read-out: Percent Of Viable Cells
Experimental: as §1, §2, §3, §4, §5, §6, §7

neuroblastoma cells = assay: MTT assay, cytotoxicity in neuroblastoma cells; settings: Tamoxifen 100 μM, AD7C-NTP 100-1000 ng/ml; for Sample (absorbance difference): single replicate
Experimental: as §1, §2, §3, §4, §5, §6, §7

With `CC/C(=C(\c1ccccc1)c1ccc(OCCN(C)C)cc1)c1ccccc1` [PC (Tamoxifen), tamoxifen] the viability at 24 h, 100 µM ([1]; 24 hrs) was 28%, the viability at 4 days, 100 µM ([1]; 4 days) was 19% and the “ABS 570-650 Mean” value (glioma cells; 24 hrs) was 0.015. For the same compound, the “ABS 570-650 Sample” value (glioma cells; 24 hrs) was 0.017 and 0.012, the “ABS 570-650 Mean” value (glioma cells; 4 days) was 0.015 and the “ABS 570-650 Sample” value (glioma cells; 4 days) was 0.018 and 0.012. The viability at 24 h, 100 µM ([2]; 24 hour incubation) was 14%, the viability at 4 days, 100 µM ([2]; 4 day incubation) was 25% and the “Mean (absorbance difference)” value (neuroblastoma cells; 24 hour incubation) was 0.010. For the same compound, the “Sample (absorbance difference)” value (neuroblastoma cells; 24 hour incubation) was 0.010 and 0.009, the “Mean (absorbance difference)” value (neuroblastoma cells; 4 day incubation) was 0.019 and the “Sample (absorbance difference)” value (neuroblastoma cells; 4 day incubation) was 0.016.
